Several values for one entry are separate records, joined by “and”; a condition that tells them apart may be missing. Identical values can stand only once. Inconclusive results are not listed.
System: BDF1 mice, s.c. Lewis lung carcinoma, T/C %
Experiment: NCI In Vivo Anticancer Drug Screen. Data for tumor model Lewis Lung Carcinoma (subcutaneous) in B6D2F1 (BDF1) mice
Outline: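 First, mice carry a transplantable tumor. Next, groups receive either compound or vehicle. Finally, survival or tumor dimensions in the dosed animals are divided by the corresponding control figure.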

[1] = endpoint: median survival time, dose: 12.5 mg/kg/injection, schedule: Q01DX009 (ip), vehicle: Klucel (hydroxypropylcellulose) (HPC), higher = longer survival

In the case of `C[n+]1ccc(Nc2ccc(NC(=O)c3ccc(Nc4cc[n+](C)c5ccc(N)cc45)cc3N)cc2)cc1`, the T/C (endpoint: mean tumor weight, dose: 6.25 mg/kg/injection, schedule: Q01DX011 (ip), vehicle: saline, higher = larger tumour) is reported as 158 % of control, the T/C (endpoint: mean tumor weight, dose: 12.5 mg/kg/injection, schedule: Q01DX011 (ip), vehicle: saline, higher = larger tumour) is reported as 40 % of control and the T/C (endpoint: median survival time, dose: 3.13 mg/kg/injection, schedule: Q01DX009 (ip), vehicle: Klucel (hydroxypropylcellulose) (HPC), higher = longer survival) is reported as 243 % of control. For the same compound, the T/C [1] was 244 % of control.

In the case of `O=C1CCC(=O)N1Br`, the T/C (endpoint: mean tumor weight, dose: 50.0 mg/kg/injection, schedule: Q01DX011 (ip), vehicle: other, higher = larger tumour) is reported as 99 % of control, the T/C (endpoint: mean tumor weight, dose: 75.0 mg/kg/injection, schedule: Q01DX011 (ip), vehicle: other, higher = larger tumour) is reported as 59 % of control and 75 % of control and the T/C (endpoint: mean tumor weight, dose: 150.0 mg/kg/injection, schedule: Q01DX011 (ip), vehicle: other, higher = larger tumour) is reported as 76 % of control. For the same compound, the T/C (endpoint: mean tumor weight, dose: 300.0 mg/kg/injection, schedule: Q01DX011 (ip), vehicle: other, higher = larger tumour) was 115 % of control.

For `SCc1ccccn1`, the T/C (endpoint: mean tumor weight, dose: 37.8 mg/kg/injection, schedule: Q01DX011 (ip), vehicle: carboxymethylcellulose (CMC), higher = larger tumour) was 95 % of control, the T/C (endpoint: mean tumor weight, dose: 75.5 mg/kg/injection, schedule: Q01DX011 (ip), vehicle: carboxymethylcellulose (CMC), higher = larger tumour) was 97 % of control and the T/C (endpoint: mean tumor weight, dose: 150.0 mg/kg/injection, schedule: Q01DX011 (ip), vehicle: carboxymethylcellulose (CMC), higher = larger tumour) was 90 % of control.

With `CC(/C=N/N=C(N)N)=N\N=C(N)N` the T/C (endpoint: mean tumor weight, dose: 15.0 mg/kg/injection, schedule: Q01DX011 (ip), vehicle: saline, higher = larger tumour) was 119 % of control, the T/C (endpoint: mean tumor weight, dose: 30.0 mg/kg/injection, schedule: Q01DX011 (ip), vehicle: saline, higher = larger tumour) was 88 % of control and the T/C (endpoint: mean tumor weight, dose: 60.0 mg/kg/injection, schedule: Q01DX011 (ip), vehicle: saline, higher = larger tumour) was 46 % of control.

In the case of `CC(=O)Nc1cc2c(cc1Br)-c1ccccc1C2O` (stereo not drawn), the T/C (endpoint: mean tumor weight, dose: 24.0 mg/kg/injection, schedule: Q01DX011 (ip), vehicle: saline, higher = larger tumour) is reported as 47 % of control and 62 % of control and 69 % of control, the T/C (endpoint: mean tumor weight, dose: 55.0 mg/kg/injection, schedule: Q01DX011 (ip), vehicle: saline, higher = larger tumour) is reported as 31 % of control and 52 % of control and 53 % of control and the T/C (endpoint: mean tumor weight, dose: 444.0 mg/kg/injection, schedule: Q01DX011 (ip), vehicle: saline, higher = larger tumour) is reported as 26 % of control. The T/C (endpoint: mean tumor weight, dose: 666.0 mg/kg/injection, schedule: Q01DX011 (ip), vehicle: saline, higher = larger tumour) was 19 % of control.

`CN(C)c1ccc(/C=C\c2ccnc3ccccc23)cc1` was tested, and the T/C (endpoint: mean tumor weight, dose: 1.25 mg/kg/injection, schedule: Q01DX011 (ip), vehicle: other, higher = larger tumour) was 103 % of control, the T/C (endpoint: mean tumor weight, dose: 2.5 mg/kg/injection, schedule: Q01DX011 (ip), vehicle: other, higher = larger tumour) was 84 % of control and the T/C (endpoint: mean tumor weight, dose: 5.0 mg/kg/injection, schedule: Q01DX011 (ip), vehicle: other, higher = larger tumour) was 75 % of control. The T/C (endpoint: mean tumor weight, dose: 10.0 mg/kg/injection, schedule: Q01DX011 (ip), vehicle: other, higher = larger tumour) was 71 % of control and 83 % of control and the T/C (endpoint: mean tumor weight, dose: 20.0 mg/kg/injection, schedule: Q01DX011 (ip), vehicle: other, higher = larger tumour) was 54 % of control and 68 % of control.

For `CCC[CH2][Sn]1([CH2]CCC)[O]C(=O)C[S]1`, the T/C (endpoint: mean tumor weight, dose: 4.0 mg/kg/injection, schedule: Q01DX011 (ip), vehicle: saline, higher = larger tumour) was 88 % of control, the T/C (endpoint: mean tumor weight, dose: 8.0 mg/kg/injection, schedule: Q01DX011 (ip), vehicle: saline, higher = larger tumour) was 50 % of control and the T/C (endpoint: mean tumor weight, dose: 16.0 mg/kg/injection, schedule: Q01DX011 (ip), vehicle: saline, higher = larger tumour) was 100 % of control.

For `COc1cc2c(cc1Oc1c(Oc3c(O)c(OC)cc4c3C(CC(C)C)N(C)CC4)c(OC)cc3c1C(CC(C)C)N(C)CC3)C(CC(C)C)N(C)CC2` (stereo not drawn), the T/C [1] was 92 % of control, the T/C (endpoint: median survival time, dose: 25.0 mg/kg/injection, schedule: Q01DX009 (ip), vehicle: Klucel (hydroxypropylcellulose) (HPC), higher = longer survival) was 98 % of control and the T/C (endpoint: median survival time, dose: 50.0 mg/kg/injection, schedule: Q01DX009 (ip), vehicle: Klucel (hydroxypropylcellulose) (HPC), higher = longer survival) was 88 % of control.

With `Nc1nc(SCc2ccccc2Cl)c2[nH]cnc2n1` the T/C (endpoint: mean tumor weight, dose: 3.8 mg/kg/injection, schedule: Q01DX011 (ip), vehicle: other, higher = larger tumour) was 82 % of control, the T/C (endpoint: mean tumor weight, dose: 7.5 mg/kg/injection, schedule: Q01DX011 (ip), vehicle: other, higher = larger tumour) was 38 % of control and the T/C (endpoint: mean tumor weight, dose: 15.0 mg/kg/injection, schedule: Q01DX011 (ip), vehicle: other, higher = larger tumour) was 99 % of control. For the same compound, the T/C (endpoint: mean tumor weight, dose: 60.0 mg/kg/injection, schedule: Q01DX011 (ip), vehicle: other, higher = larger tumour) was 29 % of control and the T/C (endpoint: mean tumor weight, dose: 120.0 mg/kg/injection, schedule: Q01DX011 (ip), vehicle: other, higher = larger tumour) was 11 % of control.

For `FC(F)(F)c1nc2nc(Cl)c(Cl)nc2[nH]1`, the T/C (endpoint: median survival time, dose: 11.25 mg/kg/injection, schedule: Q01DX009 (ip), vehicle: Klucel (hydroxypropylcellulose) (HPC), higher = longer survival) was 105 % of control, the T/C (endpoint: median survival time, dose: 22.5 mg/kg/injection, schedule: Q01DX009 (ip), vehicle: Klucel (hydroxypropylcellulose) (HPC), higher = longer survival) was 101 % of control and the T/C (endpoint: median survival time, dose: 45.0 mg/kg/injection, schedule: Q01DX009 (ip), vehicle: Klucel (hydroxypropylcellulose) (HPC), higher = longer survival) was 96 % of control. For the same compound, the T/C (endpoint: median survival time, dose: 90.0 mg/kg/injection, schedule: Q01DX009 (ip), vehicle: Klucel (hydroxypropylcellulose) (HPC), higher = longer survival) was 98 % of control.

— PubChem BioAssay AID270 (DTP/NCI, 2004)
